Assay results taken from the supplement of paper PMC10307832.

How the values were obtained:
Experiment in all cases: relative viability (nuclei count vs DMSO), 5 days (fraction); higher = more cells survive
[1] = compound: C1CNCCC1C2=CC(=NN2)C3=CC=NC=C3 + COc1cc2c(Oc3ccc(NC(=O)C4(C(=O)Nc5ccc(F)cc5)CC4)cc3F)ccnc2cc1OCCCN1CCOCC1 [Foretinib] (partner 0.25 µM)
In short: (§1)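 Lung cancer cell lines were seeded in 1536-well plates and dosed by pin tool the next day, with either a single drug or a fixed anchor-drug dose combined with five library-drug doses (not always all listed) spaced in √10 steps. Five days later, one step fixed the cells and stained their nuclei (final 0.05% Triton X-100, 1% formaldehyde, 1 ug/ml Hoechst), and nuclei were counted on 4× images. Relative viability is the nuclei count in treated wells divided by the count in vehicle wells, and each value is the median of duplicate plates.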

[2] = compound: C[C@@H](N)c1ccc(C(=O)Nc2ccnc3[nH]ccc23)cc1 + CC1(C)CCC(c2ccc(Cl)cc2)=C(CN2CCN(c3ccc(C(=O)NS(=O)(=O)c4ccc(N[C@H](CCN5CCOCC5)CSc5ccccc5)c(S(=O)(=O)C(F)(F)F)c4)cc3)CC2)C1 [Navitoclax] (partner 0.5 µM)
In short: as §1

Tanzisertib + Trametinib = compound: O[C@H]1CC[C@H](Nc2ncc3nc(Nc4c(F)cc(F)cc4F)n([C@H]4CCOC4)c3n2)CC1 [Tanzisertib] + CC(=O)Nc1cccc(-n2c(=O)n(C3CC3)c(=O)c3c(Nc4ccc(I)cc4F)n(C)c(=O)c(C)c32)c1 [Trametinib] (partner 0.02 µM)
In short: as §1

[3] = compound: C[C@@H](N)c1ccc(C(=O)Nc2ccnc3[nH]ccc23)cc1 + Cc1nc(NC(=O)N2CCC[C@H]2C(N)=O)sc1-c1ccnc(C(C)(C)C(F)(F)F)c1 [Alpelisib] (partner 2 µM)
In short: as §1

Cell Line	relative viability ([1]; first compound 0.08 µM)	relative viability ([1]; first compound 0.8 µM)	relative viability ([1]; first compound 2.53 µM)	relative viability ([1]; first compound 8 µM)	relative viability ([2]; first compound 0.04 µM)	relative viability ([2]; first compound 0.1265 µM)	relative viability ([2]; first compound 0.4 µM)	relative viability ([2]; first compound 1.265 µM)	relative viability ([2]; first compound 4 µM)	relative viability (Tanzisertib + Trametinib; first compound 0.08 µM)	relative viability (Tanzisertib + Trametinib; first compound 0.253 µM)	relative viability (Tanzisertib + Trametinib; first compound 0.8 µM)	relative viability (Tanzisertib + Trametinib; first compound 2.53 µM)	relative viability (Tanzisertib + Trametinib; first compound 8 µM)	relative viability ([3]; first compound 0.04 µM)	relative viability ([3]; first compound 0.1265 µM)	relative viability ([3]; first compound 0.4 µM)	relative viability ([3]; first compound 1.265 µM)	relative viability ([3]; first compound 4 µM)
LXF-289	0.978	1.03	0.989	0.918	1.01	0.915	1.02	1.07	0.876	0.694	0.691	0.748	0.663	0.82	1.12	1.04	1.04	1.07	0.85
NCI-H23	0.766	1.19	1.25	1.11	1.06	0.963	0.986		0.582	0.389	0.357	0.418	0.367	0.419	0.802	0.766	0.883		0.608
NCI-H322M	0.965	1.1	1.02	1.13	1.2	1.21	1.36		1.55	0.464	0.482	0.491	0.448	0.544	0.909	0.838	0.935		0.969
NCI-H441	0.945	1.18	1.12	0.834	0.571	0.546	0.477	0.624	0.571	0.567	0.452	0.456	0.429	0.388	0.715	0.602	0.641	0.669	0.919
NCI-H460	0.978	1.1	1.02	1.07	1.16	1.08	1.22	1.14	0.825	0.177	0.11	0.2	0.139	0.0888	0.531	0.549	0.697	0.555	0.41
NCI-H520	0.613	0.722	0.811	0.545	1.03	1.01	1.05	1.14	1.14	0.734	0.724	0.814	0.776	0.646	0.971	0.969	1.21	1.12	1.07
NCI-H596	0.87	0.834	0.965	0.889	1.01	1.2	0.96	1.06	0.955	0.789	0.796	0.89	0.73	0.776	0.556	0.496	0.508	0.498	0.409
NCI-H647	0.922	1.04	1.27	1.32	0.978	1.19	0.942		0.762	0.702	0.47	0.524	0.528	0.418	1.32	1.08	0.962	0.96	0.928
NCI-H727	0.805	0.758	1.13	0.904	0.524	0.579	0.676	0.484	0.411	0.38	0.391	0.387	0.347	0.352	0.572	0.809	0.41	0.937	0.786
NCI-H838	1.03	0.996	1.08	0.996	1.08	1.1	0.84	0.714	0.524	0.705	0.566	0.506	0.529	0.49	0.909	0.884	0.773	0.571	0.344
NCI-H1355	0.906	0.938	1.05	0.923	1.01	0.986	1.04		0.748	0.455	0.433	0.47	0.417	0.464	0.885	0.833	0.919		0.746
NCI-H1395	0.982	0.821	1.15	1.04	1.04	1.32	1.11		0.876	1.03	0.932	0.989	0.991	1.05	1.07	0.976	0.996		0.838
NCI-H1437	1.21	1.32	1.25	1.28	1.11	1.06	1.15	1.1	0.993	0.588	0.481	0.512	0.558	0.43	0.899	0.935	0.945	0.934	0.764
NCI-H1651	0.763	0.839	0.7	0.851	1.07	1	1.11	1.26	1.11	0.851	0.83	0.775	0.832	0.85	1.06	0.942	1.01	1.14	1.06
NCI-H1666	0.887	0.987	0.963	1.03	1.05	1.21	1.09	1.19	1.17	0.842	0.839	0.968	0.862	0.908	0.973	1.12	1.18	1.36	1.16
NCI-H1734	0.81	0.919	0.992	0.836	0.943	0.82	0.81		0.443	0.652	0.669	0.709	0.681	0.721	0.747	0.638	0.622		0.487
NCI-H1755	0.968		0.908	0.897	1.04	0.985	0.962	0.933	0.622	0.791	0.831	0.779	0.697	0.719	0.935	0.899	0.886	0.856	0.635
